Results from the Kinase Knowledgebase extract (Sharma et al. 2016).

target: CDK2 (human) (UniProt P24941); assay: Enzyme Assay

Compound | IC50 [µM]
N[C@H]1CC[C@H](Nc2cc(Nc3ccc(F)c(Cl)c3)n3ncc(I)c3n2)CC1 | < 100
Cc1c(N[C@H]2CC[C@H](N)CC2)nc2ccnn2c1Nc1cccc(Cl)c1 | < 100
Cc1c(N[C@H]2CC[C@H](N)CC2)nc2ccnn2c1Nc1cccc(OC2CCCC2)c1 | < 100
Cc1c(N[C@H]2CC[C@H](N)CC2)nc2ccnn2c1Nc1ccc2[nH]ccc2c1 | < 100
CCOc1ccc(Nc2c(C)c(NC3CCCNC3)nc3c(C(C)C)cnn23)cc1 (stereo not drawn) | < 100
Cc1cc2cc(Nc3c(C)c(N[C@H]4CC[C@H](N)CC4)nc4ccnn34)ccc2[nH]1 | < 100
Cc1c(N[C@H]2CC[C@H](N)CC2)nc2ccnn2c1Nc1ccc(CO)cc1 | < 100
Cc1c(N[C@H]2CC[C@H](N)CC2)nc2ccnn2c1Nc1ccc(-c2ccc(N(C)C)cc2)cc1 | < 100
Cc1c(N[C@H]2CC[C@H](N)CC2)nc2c(C(=O)C(F)(F)F)cnn2c1Nc1ccc(I)cc1 | < 100
Cc1c(N[C@H]2CC[C@H](N)CC2)nc2ccnn2c1Nc1ccc(OCCn2ccnc2)cc1 | < 100
CCc1c(N[C@H]2CC[C@H](N)CC2)nc2ccnn2c1Nc1ccc(OC(F)(F)F)cc1 | < 100
CCOc1ccc(Nc2c(C)c(NC3CCCNC3)nc3c(C#N)cnn23)cc1 (stereo not drawn) | < 100
Cc1c(N[C@H]2CC[C@H](N)CC2)nc2ccnn2c1Nc1ccc(OC(F)(F)F)cc1 | < 100
Cc1c(N[C@H]2CC[C@H](N)CC2)nc2ccnn2c1Nc1ccc(OC2CCOCC2)cc1 | < 100
Cc1c(N[C@H]2CC[C@H](N)CC2)nc2ccnn2c1Nc1ccc2cn[nH]c2c1 | < 100
Cc1c(N[C@H]2CC[C@H](N)CC2)nc2ccnn2c1Nc1ccc(-c2cncnc2)cc1 | < 100
Cc1c(N[C@H]2CC[C@H](N)CC2)nc2ccnn2c1Nc1ccc(-c2cccc(C(F)(F)F)c2)cc1 | < 100
C=C(C)CNc1c(CC)c(N[C@H]2CC[C@H](N)CC2)nc2ccnn12 | < 100
Cc1c(N[C@H]2CC[C@H](N)CC2)nc2ccnn2c1Nc1cccc(OCC(O)CO)c1 (stereo partly drawn) | < 100
Cc1c(N[C@H]2CC[C@H](N)CC2)nc2ccnn2c1Nc1ccc(-c2cccnc2)cc1 | < 100
Cc1c(N[C@H]2CC[C@H](N)CC2)nc2ccnn2c1Nc1ccc(OC(F)(F)F)c(Cl)c1 | < 100
Cc1c(N[C@H]2CC[C@H](N)CC2)nc2ccnn2c1Nc1ccc(C(=O)Nc2ccccc2)cc1 | < 100
CCc1c(N[C@H]2CC[C@H](N)CC2)nc2ccnn2c1Nc1cccc(C)c1 | < 100

Compound | IC50 [µM]
Cc1ccc(Nc2c(C)c(N[C@H]3CC[C@H](N)CC3)nc3ccnn23)cc1C | < 100
Cc1cccc(-c2ccc(Nc3c(C)c(N[C@H]4CC[C@H](N)CC4)nc4ccnn34)cc2)c1 | < 100
CCCNc1c(C)c(N[C@H]2CC[C@H](N)CC2)nc2ccnn12 | < 100
CCOc1ccc(Nc2c(C)c(N[C@H]3CC[C@H](N)CC3)nc3c(C(C)C)cnn23)cc1 | < 100
Cc1c(N[C@H]2CC[C@H](N)CC2)nc2ccnn2c1Nc1ccccc1F | < 100
Cc1c(N[C@H]2CC[C@H](N)CC2)nc2ccnn2c1Nc1ccc(-c2ccccc2)cc1 | < 100
COc1c(N[C@H]2CC[C@H](N)CC2)nc2ccnn2c1Nc1ccc(F)c(Cl)c1 | < 100
Cc1c(N[C@H]2CC[C@H](N)CC2)nc2ccnn2c1Nc1ccc(OC2CCCC2)cc1 | < 100
Cc1c(N[C@H]2CC[C@H](N)CC2)nc2ccnn2c1Nc1ccc(-c2ccncc2)cc1 | < 100
Cc1c(N[C@H]2CC[C@H](N)CC2)nc2ccnn2c1Nc1cccc(OCc2ccccc2Cl)c1 | < 100
COc1ccc(-c2ccc(Nc3c(C)c(N[C@H]4CC[C@H](N)CC4)nc4ccnn34)cc2)cc1 | < 100
CCc1c(N[C@H]2CC[C@H](N)CC2)nc2ccnn2c1Nc1ccc(N2CCCC2=O)cc1 | < 100
Cc1csc(-c2ccc(Nc3c(C)c(N[C@H]4CC[C@H](N)CC4)nc4ccnn34)cc2)c1 | < 100
CCc1c(N[C@H]2CC[C@H](N)CC2)nc2ccnn2c1NCc1ccccc1Cl | < 100
Cc1c(N[C@H]2CC[C@H](N)CC2)nc2ccnn2c1Nc1ccc(-c2ccc(C(F)(F)F)cc2)cc1 | < 100
CCOc1ccc(Nc2c(C)c(N[C@H]3CC[C@H](N)CC3)nc3c(C(=O)Nc4ccccn4)cnn23)cc1 | < 100
CCOC(=O)c1ccc(Nc2c(CC)c(N[C@H]3CC[C@H](N)CC3)nc3ccnn23)cc1 | < 100
CCc1c(N[C@H]2CC[C@H](N)CC2)nc2ccnn2c1Nc1ccc(C(N)=O)cc1 | < 100
Cc1c(N[C@H]2CC[C@H](N)CC2)nc2ccnn2c1Nc1ccc(-c2ccc(C#N)cc2)cc1 | < 100
Cc1c(N[C@H]2CC[C@H](N)CC2)nc2ccnn2c1Nc1ccc(-c2cc3ccccc3[nH]2)cc1 | < 100
CCOc1ccc(Nc2c(C)c(N[C@H]3CC[C@H](N)CC3)nc3c(C(=O)Nc4cccnc4)cnn23)cc1 | < 100
Cc1c(N[C@H]2CC[C@H](N)CC2)nc2ccnn2c1Nc1cccc(OCc2cccc(N)c2)c1 | < 100
Cc1c(N[C@H]2CC[C@H](N)CC2)nc2ccnn2c1Nc1ccc(OCc2ccc(Cl)cc2)cc1 | < 100

Compound | IC50 [µM]
C=CCNc1c(-c2ccccc2)c(N[C@H]2CC[C@H](N)CC2)nc2ccnn12 | < 100
CCc1c(NC2CCCNC2)nc2ccnn2c1Nc1ccc(Br)cc1 (stereo not drawn) | < 100
Cc1c(N[C@H]2CC[C@H](N)CC2)nc2ccnn2c1Nc1ccc(OC2CCN(C)CC2)cc1 | < 100
Cc1ccc(-c2ccc(Nc3c(C)c(N[C@H]4CC[C@H](N)CC4)nc4ccnn34)cc2)cc1 | < 100
Cc1c(N[C@H]2CC[C@H](N)CC2)nc2ccnn2c1Nc1cccc(OCCC2CCCCC2)c1 | < 100
CCc1c(N[C@H]2CC[C@H](N)CC2)nc2ccnn2c1Nc1ccc(OC(F)(F)C(F)F)cc1 | < 100
COc1ccc(Nc2c(CCCO)c(N[C@H]3CC[C@H](N)CC3)nc3ccnn23)cc1OC | < 100
CSc1cccc(Nc2c(C)c(N[C@H]3CC[C@H](N)CC3)nc3ccnn23)c1 | < 100
Cc1c(NC2CCCNC2)nc2ccnn2c1Nc1ccc(-c2cccc(CO)c2)cc1 (stereo not drawn) | < 100
CNC(=O)c1ccc(Nc2c(C)c(N[C@H]3CC[C@H](N)CC3)nc3ccnn23)cc1 | < 100
CCOc1ccc(Nc2c(C)c(N[C@H]3CC[C@H](N)CC3)nc3c(OC)cnn23)cc1 | < 100
CCOc1ccc(Nc2c(C)c(N[C@H]3CCN(Cc4ccccc4)C3)nc3ccnn23)cc1 | < 100
Cc1ccccc1-c1ccc(Nc2c(C)c(N[C@H]3CC[C@H](N)CC3)nc3ccnn23)cc1 | < 100
Cc1c(N[C@H]2CC[C@H](N)CC2)nc2ccnn2c1Nc1ccc(OCC2CCCC2)cc1 | < 100
CCOc1ccc(Nc2c(C)c(N(C)C3CCCNC3)nc3ccnn23)cc1 (stereo not drawn) | < 100
CCCCOc1ccc(Nc2c(CCCO)c(N[C@H]3CC[C@H](N)CC3)nc3ccnn23)cc1 | < 100
CCOc1ccc(Nc2c(C)c(N[C@@H]3CCNC3)nc3ccnn23)cc1 | < 100
Cc1c(N[C@H]2CC[C@H](N)CC2)nc2ccnn2c1Nc1cccc(OCCn2ccnc2)c1 | < 100
COc1cccc(COc2ccc(Nc3c(C)c(N[C@H]4CC[C@H](N)CC4)nc4ccnn34)cc2)c1 | < 100
Cc1c(N[C@H]2CC[C@H](N)CC2)nc2ccnn2c1Nc1ccc(OCc2ccccc2)cc1 | < 100
Cc1c(N[C@H]2CC[C@H](N)CC2)nc2ccnn2c1Nc1ccc(N2CCCCC2)cc1 | < 100
CCOC(=O)c1cccc(Nc2c(C)c(N[C@H]3CC[C@H](N)CC3)nc3ccnn23)c1 | < 100
